The source of these data is patent US7381542B2, “Nucleic acids encoding a biogenic amine receptor” (Oregon Health & Science University, priority 2001, dated 2008).

Experiment [1] has as its target T1, rat trace amine receptor (Rattus norvegicus, UniProt Q923Y9, L170Q/L53I/P183L/R211E/S15R).
T1 construct: expression vector containing the full-length rat cDNA clone described above; expressed in transfected cells
The experiment in a line: cell-based. The experiment is classed as cell-based. As to conditions: for Emax: HEK293, percent of stimulation by p-tyramine, read-out: Maximal Stimulation (% ± SEM).

Experiment [2] deals with HEK 293 cells transfected with pcDNA3.1. Nature of the experiment: MAP kinase pathway luciferase reporter in control HEK 293 cells transfected with pcDNA3.1 without receptor. The experiment is classed as cell-based, human. To be noted: compared with cells incubated in the absence of the ligand. An excerpt:
(§1) Control cells were transfected with pcDNA3.1 without the rat trace amine receptor sequences. All cells were also co-transfected with 2 additional constructs: one (elk-gal) that encoded the yeast transcription factor gal under the transcriptional control of an Elk-responsive promoter, and another encoding firefly luciferase under the transcriptional control of a gal-responsive promoter.
In general terms: In a reporter assay the amount or activity of a reporter protein is the signal.

Experiment [3] deals with T2, human trace amine receptor (Homo sapiens, UniProt Q96RJ0, S183L/Y279S).
T2 construct: expressed in transfected cells; host or cells: HEK 293 cells, pcDNA 3.1 vector (construct H2-3 pcDNA3.1)
T2 sequence (Q96RJ0 1-339 S183L/Y279S): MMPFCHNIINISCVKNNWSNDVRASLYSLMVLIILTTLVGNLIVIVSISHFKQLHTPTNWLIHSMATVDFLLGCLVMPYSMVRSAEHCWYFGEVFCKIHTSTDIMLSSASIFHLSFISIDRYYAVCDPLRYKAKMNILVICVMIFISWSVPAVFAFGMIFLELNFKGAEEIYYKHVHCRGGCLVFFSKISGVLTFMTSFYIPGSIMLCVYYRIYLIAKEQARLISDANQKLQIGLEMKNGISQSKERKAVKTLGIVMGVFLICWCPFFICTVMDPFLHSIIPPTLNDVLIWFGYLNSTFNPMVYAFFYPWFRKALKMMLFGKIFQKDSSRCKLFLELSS
Nature of the experiment: MAP kinase pathway (Elk-gal/luciferase reporter) stimulation in HEK 293 cells transfected with H2-3 pcDNA3.1. The format is cell-based. As to conditions: compared with cells incubated in the absence of the ligand; receptor-transfected HEK 293 cells.
Source text: as §1

[4] abbreviates: Table III, cAMP, 1 hour at 37° C., 100 μM IBMX, read-out: EC50 (nM ± SEM).
[5] abbreviates: untitled table after Table III, first value column, read-out: EC50 (nM), NEUROTRANSMITTERS, first column.
Setting [6] is: untitled table after Table III, second value column, read-out: EC50 (nM), NEUROTRANSMITTERS, second column (no head of its own).
Setting [7] is: EC50 (nM), NEUROTRANSMITTERS, first column.
Setting [8] is: EC50 (nM), NEUROTRANSMITTERS, second column (no head of its own).
[9] abbreviates: untitled table after Table III, drugs, read-out: EC50 (nM), DRUGS.

Broadly, the EC50 is the concentration at which the effect is half-maximal.

“Also recorded” adds a separate entry of the source. Where two headings read alike, the source gives them in different places.

T1 sequence (Q923Y9 whole entry S15R/L53I/L170Q/P183L/R211E): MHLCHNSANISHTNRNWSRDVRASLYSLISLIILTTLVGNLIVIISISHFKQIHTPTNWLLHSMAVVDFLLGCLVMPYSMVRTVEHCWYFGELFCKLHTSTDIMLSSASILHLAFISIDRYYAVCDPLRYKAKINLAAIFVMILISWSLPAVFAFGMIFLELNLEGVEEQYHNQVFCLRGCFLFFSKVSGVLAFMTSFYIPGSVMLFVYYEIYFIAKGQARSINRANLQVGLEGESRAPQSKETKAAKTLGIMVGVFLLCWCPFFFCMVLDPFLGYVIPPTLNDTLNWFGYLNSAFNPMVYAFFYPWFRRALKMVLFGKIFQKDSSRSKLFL

In the case of `COc1cc(CCN)ccc1O` [3-methoxytyramine], the “potency relative to precursor catecholamines dopamine, norepinephrine, epinephrine” value in experiment [1] is “significantly more potent; also recorded: more potently activated”. On to `NCCc1c[nH]c2ccc(O)cc12` [5-hydroxytryptamine], for which the Emax in experiment [1] (Table III) is 47 ± 9%. Also, the EC50 in experiment [1] (setting [4]) amounted to 12800 ± 4180 nM; in experiment [1] (setting [5]), 1910 nM; in experiment [1] (setting [6]), 8000 nM. Besides, the “fold stimulation (luciferase), pcDNA3.1” value in experiment [2] is 1 fold. Further, the “fold stimulation (luciferase), H2-3 pcDNA3.1” value in experiment [3] came to 1.22 fold. Regarding `CN1CC=C(c2ccccc2)CC1` [MPTP, 1-methyl 4phenyl-1,2,3,6-tetrahydropyridine], the 50% effective concentration (EC50) in experiment [1] (setting [4]) was determined as 99 ± 11 nM. Consider `NCC(O)c1ccc(O)cc1` (centres unmarked) [Octopamine], for which the figures for the EC50 in experiment [1] (EC50 (nM ± SEM)), in experiment [1] (setting [7]) and in experiment [1] (setting [8]) were 1300 ± 350 nM, 874 nM and 1400 nM, respectively. Consider `NCCc1ccccc1` [Phenethylamine, β-phenethylamine], for which the 50% effective concentration (EC50) in experiment [1] (setting [4]) amounted to 237 ± 71 nM; in experiment [1] (setting [5]) it was 218 nM; in experiment [1] (setting [6]), 124 nM.

Regarding `CN[C@H](C)Cc1ccccc1` [R-methamphetamine], the EC50 in experiment [1] (setting [9]) came to 236 nM. For `CN[C@@H](C)Cc1ccccc1` [S-methamphetamine], the concentration giving a half-maximal response (EC50) in experiment [1] (setting [9]) was 188 nM. `C=CCN1CCc2c(cc(O)c(O)c2Cl)C(c2ccccc2)C1` (centres unmarked) [SKF82958]: the “fold stimulation (luciferase), pcDNA3.1” value in experiment [2] is given as 0.79 fold.

For the compound `CNCC(O)c1ccc(O)cc1` (centres unmarked) [Synephrine], in experiment [1] (setting [4]), the concentration giving a half-maximal response (EC50) was 584 ± 100 nM. As to `NCCc1c[nH]c2ccccc12` [Tryptamine], the 50% effective concentration (EC50) in experiment [1] (setting [4]) was found to be 309 ± 76 nM; in experiment [1] (setting [5]), 248 nM; in experiment [1] (setting [6]) it was 519 nM. Turning to `CN1C[C@H](C(=O)N[C@]2(C)O[C@@]3(O)[C@@H]4CCCN4C(=O)[C@H](Cc4ccccc4)N3C2=O)C[C@@H]2c3cccc4[nH]cc(c34)C[C@H]21` [dihydroergotamine], in experiment [1] (listed as dihydroergotsmnine), the “activation of the trace amine receptor (cAMP production), in words” value is recorded as “stimulate camp production”. On to `N[C@@H](CCC(=O)O)C(=O)O` [glutamate], for which the “activation of the trace amine receptor (cAMP production), in words” value in experiment [1] is “not activated”. Still for that read-out and setting: the value for `COc1cc(CC(=O)O)ccc1O` [homovanillic acid, 3-methoxy4-hydroxyphenylacetic acid] was “no detectable activity”. For `NCCc1cccc(O)c1` [m-tyramine], the figures for the half-maximal effective concentration (EC50) in experiment [1] (setting [4]), in experiment [1] (setting [5]) and in experiment [1] (setting [6]) were 5370 ± 1180 nM, 7190 nM and 5800 nM, respectively. Consider `CNCC(O)c1ccc(O)c(OC)c1` (stereo not drawn) [metanephrine, 3-methoxy-β-4-dihydroxy-N-methyl-β-phenethylamine], for which the “potency relative to precursor catecholamines dopamine, norepinephrine, epinephrine” value in experiment [1] is listed as “significantly more potent; also recorded: more potently activated”. Consider `COc1cc(C(O)CN)ccc1O` (stereo not drawn) [normetanephrine, 3-methoxy-β-4-dihydroxy-β-phenethylamine], for which the “potency relative to precursor catecholamines dopamine, norepinephrine, epinephrine” value in experiment [1] is “significantly more potent; also recorded: more potently activated”. In the case of `COc1ccc(CCN)cc1` [p-methoxy PEA], in experiment [1] (setting [9]), the concentration giving a half-maximal response (EC50) is 346 nM. For the compound `NCCc1ccc(O)cc1` [p-tyramine], the concentration for a half-maximal effect (EC50) worked out at 69 ± 9 nM in experiment [1] (EC50 (nM ± SEM)); 20.2 nM in experiment [1] (EC50 (nM), DRUGS); 44.9 nM in experiment [1] (setting [7]); 82 nM in experiment [1] (setting [8]). Moreover, the Emax in experiment [1] (Table III) was found to be 100%.
